Patent US20250339514A1, “SINGLE-AND MULTI-EPITOPE PEPTIDE AND MRNA VACCINES TO GENERATE TOLEROGENIC EFFECTS FOR ALLERGIC AND AUTOIMMUNE DISEASE BY TARGETING LIVER SINUSOIDAL ENDOTHELIAL CELLS” (The Regents of the University of California, priority 2022, published 2025)
Like-named read-outs stand apart in the source and are kept apart here.

Experiments:
T cell responses = system: T cell responses; parameters: Immunopositivity of predicted CTL epitope / Immunopositivity of MHC II peptide: scale not given here; conditions: cited from earlier work; for Immunopositivity of predicted CTL epitope: class I MHC peptides, Table 59; for Immunopositivity of MHC II peptide: MHC II peptides, Table 60
[1] = system: class I MHC K, D, and L loci; conditions: cited from earlier work; for predicted binding to the H2-Ld locus: SYFPEITHI and BIMAS
H2-A^k = H2-A^k (Mus musculus, UniProt P01910+P06343); conditions: MHC II H2-A^k; cited from earlier work
Chain of H2-A^k (P01910 24-256): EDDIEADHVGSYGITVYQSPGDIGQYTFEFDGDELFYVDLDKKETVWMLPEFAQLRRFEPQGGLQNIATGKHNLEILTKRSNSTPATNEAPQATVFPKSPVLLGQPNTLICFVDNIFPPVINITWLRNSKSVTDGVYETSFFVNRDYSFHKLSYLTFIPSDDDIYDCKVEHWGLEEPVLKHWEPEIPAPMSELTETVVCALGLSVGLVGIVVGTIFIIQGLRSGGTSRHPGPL
Chain of H2-A^k (P06343 28-263): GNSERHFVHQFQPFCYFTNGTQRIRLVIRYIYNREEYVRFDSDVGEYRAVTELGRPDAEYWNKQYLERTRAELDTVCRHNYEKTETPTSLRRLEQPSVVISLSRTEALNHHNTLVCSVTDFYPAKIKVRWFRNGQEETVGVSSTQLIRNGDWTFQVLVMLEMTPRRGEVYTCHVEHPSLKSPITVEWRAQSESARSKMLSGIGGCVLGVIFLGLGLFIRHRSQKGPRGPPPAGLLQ

factor VII = conditions: cited from earlier work
[2] = ionizable lipid; cited from earlier work
[3] = Cargo loading and ApoBP ligand content by microBCA / BCA assay; assay type: physicochemical
Description: The relative abundance of mannan incorporation was assessed by calculating the difference between the total amount offered for conjugation versus the amount recovered in the supernatant. […] The abundance of peptide conjugation was assessed by a microBCA assay and a nanodrop method.
The purified NPs were fully characterized using dynamic light scattering to determine particle size and surface charge, and scanning electron microscopy was performed to visualize particle morphology. The microBCA assay was used to detect OVA loading capacity and the conjugation efficiency of the peptide ligand, whereas the phenol-sulfuric acid method was used to determine mannan concentration. The endotoxin level was verified by a chromogenic LAL assay.
Particles were separated and washed by centrifugation (15,000 g, 10 min). Hydrodynamic size and surface potential were measured using dynamic light scattering (DLS), with visualization of the particle size and morphology by scanning electron microscopy (SEM). […] In addition to loading of T-cell epitopes, we also selected an IgE binding peptide for encapsulation, in addition to the synthesis of nanoparticles that incorporate CPPE as well as a purified Ara h2 protein (Indoor Biotechnologies). The CPPE was prepared as described in the Online Repository section. Allergen loading capacity, including for CPPE, purified Ara h2 and its epitopes, as well as the conjugation efficacy of the ApoB ligand was determined by bicinchoninic acid assay (BCA assay).

C57BL/6J mice = conditions: inhalation of low peptide concentrations, naïve C57BL/6J mice; cited from earlier work
I-Ek = conditions: cited from earlier work; for Score (antigenic score predicted): MHC II H2-E^k; for SYFPEITHI score: I-Ek
human T-cell lines = conditions: T-cell lines isolated from 10 different donors; cited from earlier work
lupus-prone mice = conditions: subcutaneous every 2 weeks; cited from earlier work
[4] = H2 locus K, haplotype k (9-mer)
[5] = peptide in PLGA nanoparticles, Table 66
[6] = H2 locus D, haplotype b (9-mer)
[7] = H2 locus K, haplotype d (9-mer)

SEQ ID NO: 1141 (EEIKTTNPV; listed as Arachis hypogaea)
Immunopositivity of predicted CTL epitope (T cell responses): EEIKTTNPV^e | BIM score predicted using the BIMAS program [1, 4]: 100 | SYF score predicted using the SYFPEITHI program [1, 4]: 20

SEQ ID NO: 1182 (CKDDINSYECWCPFG; listed as Arachis hypogaea)
Score (antigenic score predicted) (H2-A^k): 18

CCCCC/C=C\C/C=C\CCCCCCCCC(CCCCCCCC/C=C\C/C=C\CCCCC)OC(=O)CCCN(C)C [DLin-MC3-DMA, (6Z,9Z,28Z,31Z)-heptatriaconta-6,9,28,31-tetraen-19-yl-4-(dimethylamino) butanoate]
potency (factor VII; higher potency than DLin-KC2-DMA): 10 fold | pKa [2]: 6.44

SEQ ID NO: 1183 (QYVDGDQCESNPCLN; listed as Arachis hypogaea)
Score (antigenic score predicted) (H2-A^k): 18

#1 (LALFLLAAHASARQQ; listed as Arachis hypogaea)
Loading Capacity [3, 5]: 1.62 + 2.11

SEQ ID NO: 1122 (EEIRTTNPV; listed as Arachis hypogaea)
Immunopositivity of predicted CTL epitope (T cell responses): EEIRTTNPY^e | BIM score predicted using the BIMAS program [1, 4]: 100 | SYF score predicted using the SYFPEITHI program [1, 4]: 20

SEQ ID NO: 1173 (NGRDSLVNPGPAMAS; listed as Arachis hypogaea)
Score (antigenic score predicted) (H2-A^k): 24

Der p1 T-cell epitope (residues 111-139): major Der p1 T-cell epitope peptide (Hoyne et al.) (FGISNYCQIYPPNVNKIREALAQTHSAIA; UniProt P08176 209-237, looked up, fragment)
tolerance induction (C57BL/6J mice): capable of inducing tolerance

CCCCC/C=C\C/C=C\CCCCCCCCC1(CCCCCCCC/C=C\C/C=C\CCCCC)OCC(CN(C)C)O1 (stereo not drawn) [DLin-K-DMA, 2,2-dilinoleyl-4-dimethylaminomethyl-[1,3]-dioxolane]
potency on the in vivo silencing of factor VII (factor VII; higher than the other tested lipids): 2.5 fold

3 (MAKLTILVALALFLL; listed as Arachis hypogaea) [compound 3]
Loading Capacity ([3]; epitope in PLGA NPs, Table 68): 1.31 + 1.72 μg/mg

SEQ ID NO: 1124 (TADVNTQGV; listed as Arachis hypogaea)
Immunopositivity of predicted CTL epitope (T cell responses): TADVNTQGV^e | BIM score predicted using the BIMAS program [1, 6]: 3.4 | SYF score predicted using the SYFPEITHI program [1, 6]: 23

1 (LALFLLAAHASARQQ; listed as Arachis hypogaea) [compound 1]
Loading Capacity ([3]; epitope in PLGA NPs, Table 68): 1.62 + 2.11 μg/mg

CCCCC/C=C\C/C=C\CCCCCCCCC(O)(CCCCCCCC/C=C\C/C=C\CCCCC)CCCCN(C)C [YSK012-C4]
pKa [2]: 8.0

SEQ ID NO: 1134 (EYGIVADNLD; listed as Arachis hypogaea)
Immunopositivity of predicted CTL epitope (T cell responses): EYGIVADNL^d | BIM score predicted using the BIMAS program [1, 7]: 2400 | SYF score predicted using the SYFPEITHI program [1, 7]: 23

VPQYGYLTL [AAV2 capsid aa 170-178, reference compound]
predicted binding to the H2-Ld locus [1]: high-scoring

SEQ ID NO: 1174 (LEPLGLVEEGAKTAP; listed as Arachis hypogaea)
Immunopositivity of MHC II peptide (T cell responses): LEPLGLVEEGAKTAP^b | Score (antigenic score predicted) (I-Ek): 28

#4 (SYGRDPYSPSQDPYS; listed as Arachis hypogaea)
Loading Capacity [3, 5]: 8.68 + 2.04

SEQ ID NO: 1160 (GSIVNEKWID; listed as Arachis hypogaea)
Immunopositivity of predicted CTL epitope (T cell responses): GSIVNEKWI^d | BIM score predicted using the BIMAS program [1, 6]: 936 | SYF score predicted using the SYFPEITHI program [1, 6]: 26

SEQ ID NO: 1172 (TSADNNNSEYSWTGA; listed as Arachis hypogaea)
Score (antigenic score predicted) (H2-A^k): 24

NSYVTPICIADKEYT [hF.IX aa 328-342, reference compound]
SYFPEITHI score (I-Ek): 24

SEQ ID NO: 1175 (YKYLLGPFNGLDKGEP; listed as Arachis hypogaea)
Immunopositivity of MHC II peptide (T cell responses): YKYLLGPINGUDKGEP^d | Score (antigenic score predicted) (I-Ek): 28

SEQ ID NO: 1180 (NKWCSCTEGYRLAE; listed as Arachis hypogaea)
Score (antigenic score predicted) (I-Ek): 22

SEQ ID NO: 1176 (IVADNLQQQNTAPQI; listed as Arachis hypogaea)
Score (antigenic score predicted) (H2-A^k): 26

YTKVSRYVNWIKEKT [hF.IX aa 444-460, reference compound]
SYFPEITHI score (I-Ek): 22

QVSVEIEWELQKENS [AAV2-VP3 475-489, reference compound]
Th2 response (T cell responses; C3H mice): strong Th2 response | SYFPEITHI score (I-Ek): 22

SEQ ID NO: 1115 (QYGSVSTNL; listed as Arachis hypogaea)
Immunopositivity of predicted CTL epitope (T cell responses): QYGSVSTNL^c | BIM score predicted using the BIMAS program [1, 7]: 4147 | SYF score predicted using the SYFPEITHI program [1, 7]: 27

4 (SYGRDPYSPSQDPYS; listed as Arachis hypogaea) [compound 4]
Loading Capacity ([3]; epitope in PLGA NPs, Table 68): 8.68 ± 2.04 µg/mg

SEQ ID NO: 1178 (NSYVTPICIADEKEYT; listed as Arachis hypogaea)
Immunopositivity of MHC II peptide (T cell responses): NSYVTPICIADKEYT^c | Score (antigenic score predicted) (I-Ek): 24

CCCCC/C=C\C/C=C\CCCCCCCCC1(CCCCCCCC/C=C\C/C=C\CCCCC)OCC(CCN(C)C)O1 (stereo not drawn) [DLin-KC2-DMA, 2,2-dilinoleyl-4-(2-dimethylaminoethyl)-[1,3]-dioxolane]
activity (factor VII; higher activity over DLin-K-DMA): 4 fold

1,2-dioleoyl-3-dimethylaminopropane [DODAP]
pKa [2]: 6.6

AH96-110: adalimumab HCDR3 peptide (CAKVSYLSTASSLDY; listed as Homo sapiens)
recognition by T-cell lines (human T-cell lines): recognized by the majority of T-cell lines

SEQ ID NO: 1151 (KYNHDIALL; listed as Arachis hypogaea)
Immunopositivity of predicted CTL epitope (T cell responses): KYNHDIALL^c | BIM score predicted using the BIMAS program [1, 7]: 3456 | SYF score predicted using the SYFPEITHI program [1, 7]: 24

SEQ ID NO: 1140 (LDRLMNPLI; listed as Arachis hypogaea)
Immunopositivity of predicted CTL epitope (T cell responses): LDRLMNPLI^e | BIM score predicted using the BIMAS program [1, 4]: 100 | SYF score predicted using the SYFPEITHI program [1, 4]: 20

H4 aa 71-94: nucleosomal histone H4 peptide autoepitope
efficacy of autoepitope (lupus-prone mice): most effective autoepitope

SEQ ID NO: 1171 (GVLIFGKQSEKTNV; listed as Arachis hypogaea)
Score (antigenic score predicted) (I-Ek): 22

#3 (MAKLTILVALALFLL; listed as Arachis hypogaea)
Loading Capacity [3, 5]: 1.31 + 1.72

SEQ ID NO: 1170 (QVSVEIEWELQKENS; listed as Arachis hypogaea)
Immunopositivity of MHC II peptide (T cell responses): QVSVEIEWELQKENS^b | Score (antigenic score predicted) (I-Ek): 22

2 (LRNLPQQCGLRAPQR; listed as Arachis hypogaea) [compound 2]
Loading Capacity ([3]; epitope in PLGA NPs, Table 68): 3.22 ± 1.96 µg/mg

#2 (LRNLPQQCGLRAPQR; listed as Arachis hypogaea)
Loading Capacity [3, 5]: 3.22 + 1.96

SEQ ID NO: 1179 (YTKVSRYVNWIEKEKT; listed as Arachis hypogaea)
Score (antigenic score predicted) (I-Ek): 22

SEQ ID NO: 1133 (KYLGPFNGL; listed as Arachis hypogaea)
Immunopositivity of predicted CTL epitope (T cell responses): KYLGPFNGL^c | BIM score predicted using the BIMAS program [1, 7]: 6912 | SYF score predicted using the SYFPEITHI program [1, 7]: 27

SEQ ID NO: 1152 (GYVSGWGRVD; listed as Arachis hypogaea)
Immunopositivity of predicted CTL epitope (T cell responses): GYVSGWGRV^d | BIM score predicted using the BIMAS program [1, 7]: 1440 | SYF score predicted using the SYFPEITHI program [1, 7]: 22

SEQ ID NO: 1121 (LDRLMNPLI; listed as Arachis hypogaea)
Immunopositivity of predicted CTL epitope (T cell responses): LDRLMNPLI^e | SYF score predicted using the SYFPEITHI program [1, 4]: 20

AH91-110: adalimumab HCDR3 peptide
recognition by T-cell lines (human T-cell lines): recognized by the majority of T-cell lines

SEQ ID NO: 1161 (LDHENANKI; listed as Arachis hypogaea)
Immunopositivity of predicted CTL epitope (T cell responses): LDHENANKI^e | BIM score predicted using the BIMAS program [1, 6]: 240 | SYF score predicted using the SYFPEITHI program [1, 6]: 23

SEQ ID NO: 1181 (YNHDIALLELLEDEPLV; listed as Arachis hypogaea)
Score (antigenic score predicted) (H2-A^k): 24

LEPLGLVEEGAKTAP [AAV8-VP3 aa 126-140, reference compound]
Th1 response (T cell responses; C3H mice): strong H2k MHC II-restricted Th1 response | SYFPEITHI score (I-Ek): 28

QPARKRLNF [AAV8 capsid aa 166-174, reference compound]
predicted binding to the H2-Ld locus [1]: high-scoring
